Experiment [1] concerns TRPV6. The experiment can be described thus: TRPV6 gene activation assay (TRPV6 mRNA, QuantiGene 2.0) in differentiated C2BBe1 cells. The experiment is classed as cell-based, human. The following applies: for Max. Stim., TRPV6 activation: C2BBe1 cells, fold change over DMSO normalized to 1,25D3 = 100%; for EC50: C2BBe1 cells differentiated 6 days, 24 h. How it is done:
C2BBe1 (a clone of CaCO2) cells (CRL-2101, American Type Culture Collection, Manassas, VA) were maintained in DMEM (ATCC 30-2002) supplemented with 10% FBS and insulin-transferrin-selenium-G supplement (Invitrogen, Carlsbad, CA). For TRPV6 expression analysis, cells were plated in 96-well tissue culture treated plates (40,000 per well) in differentiation medium (DMEM containing 5% charcoal-stripped FBS and insulin-transferrin-sodium selenite supplement (ITS)). Cells were allowed to differentiate for 6 days with medium replacement every other day before compound treatment. The medium was removed, and serial dilutions of 1,25D3 or VDRMs in concentrations ranging from 10 μM to 2 nM in differentiation medium were added. After 24 h, the medium was removed, and cell plates were sealed and frozen at −80 °C until assayed. QuantiGene 2.0 Assay Kit (Affymetrix QS0009) was used to quantitate TRPV6 and housekeeping gene GUSB mRNA levels. Following the kit instructions, lysis buffer was added to the frozen cells and incubated briefly at 55 °C […]. Following an overnight incubation the capture plates were washed and the probes amplified following kit instructions. The resulting luminescence signal was detected on an Envision plate reader (Perkin Elmer). TRPV6 signal was normalized using the GUSB signal and the resulting data was fit to a 4-parameter logistic to determine EC50 values.

Experiment [2] deals with BGLAP. The experiment can be described thus: BGLAP gene activation assay (BGLAP mRNA, QuantiGene 2.0) in MG-63 cells. It counts as cell-based, human. Conditions: MG-63 cells; for EC50: 24 h, average of replicate runs, read-out: EC50, BGLAP activation; for Max. Stim., BGLAP activation: fold change over DMSO normalized to 1,25D3 = 100%. On the procedure: Human osteosarcoma cells MG-63, (CRL-1427, American Type Culture Collection (ATCC), Manassas, VA), were maintained in EMEM (ATCC 30–2003) + 10% FBS in 5% CO2. For bone gamma-carboxyglutamate protein (BGLAP) expression analysis MG-63 cells, suspended in EMEM (ATCC 30–2003) + 5% charcoal dextran treated FBS, were seeded onto 96-well tissue culture treated plates at 25,000 cells per well. After an overnight incubation the medium was removed and serial dilutions of VDRMs in concentrations ranging from 10 μM to 2 nM in EMEM (ATCC 30–2003) + 5% charcoal dextran treated FBS were added. Following a 24 h incubation the medium was removed and the plates were sealed and stored at −80 °C for later processing. QuantiGene 2.0 Assay Kit (Affymetrix QS0009) was used to quantitate BGLAP and the Housekeeping gene […] mRNA levels. Following the kit instructions, lysis buffer was added to the frozen cells and incubated briefly at 55 °C. A volume of 20 μl of BGLAP probeset (Affymetrix SA-10875-01) or 18 S (Affymetrix SA-10026) in blocking buffer was added to the provided capture plates before adding 80 μl of the cell lysate. The plates were sealed and incubated at 55 °C overnight. Following an overnight incubation the capture plates were washed and the probes amplified following kit instructions. The resulting luminescence signal was detected on an Envision (Perkin Elmer). BGLAP signal was normalized using the 18S signal and the resulting data was fit to a 4-parameter logistics to determine EC50.

Where [3] appears, read: Homo sapiens, average of replicate runs.

Where two headings read alike, the source gives them in different places.

This note sets out measurements from article PMC5640644, “HDX reveals the conformational dynamics of DNA sequence specific VDR co-activator interactions” (Nature Communications, 2017).

A word on the EC50: it is the concentration that produces a half-maximal response.

For the compound `CCc1cc(C(CC)(CC)c2ccc(OCC(O)C(C)(C)C)c(C)c2)sc1C(=O)N[C@@H](C)C(=O)O` (single isomer, unassigned) [Cmpd2, L-2-[(5-{1-Ethyl-1-[4-(2-hydroxy-3,3-dimethyl-butoxy)-3-methyl-phenyl]-propyl}-3-ethyl-thiophene-2-carbonyl)-amino]-propionic acid], the “Max. Stim., TRPV6 activation” value in experiment [1] was determined as 98.2%. Also, the figures for the EC50 in experiment [1] (setting [3]) and in experiment [2] (Homo sapiens) were 395 nM and 34.9 nM, respectively. In addition, in experiment [2], the “Max. Stim., BGLAP activation” value worked out at 73%.

Turning to `CCC(CC)(c1ccc(OCC(O)C(C)(C)C)c(C)c1)c1ccc(C(=O)N(C)CC(=O)O)c(C)c1` (stereo not drawn) [Cmpd1, [(4-{1-ethyl-1-[4-(2-hydroxy-3,3-dimethyl-butoxy)-3-methyl-phenyl]-propyl}-2-methyl-benzoyl)-methyl-amino]-acetic acid], the “Max. Stim., TRPV6 activation” value in experiment [1] was 80.3%. Moreover, the EC50 was determined as 63 nM in experiment [1] (setting [3]) and 1.44 nM in experiment [2] (Homo sapiens). Further, the “Max. Stim., BGLAP activation” value in experiment [2] is reported as 94.2%.

For the compound `CCC(CC)(c1ccc(OCC(O)C(C)(C)C)c(C)c1)c1cc(C)c(C(=O)Nc2nnn[nH]2)s1` (stereo not drawn) [Cmpd3, 3'-[4-(2-hydroxy-3,3-dimethylbutoxy)-3-methylphenyl]-3'-[5-(tetrazol-5-yl-aminocarbonyl)-4-methylthiophen-2-yl]pentane], the results for the EC50 in experiment [1] (top concentration 10 μM) and in experiment [2] were above 10000 nM and 698 nM, respectively. Moreover, in experiment [1], the “Max. Stim., TRPV6 activation” value was 17.4%. Further, the “Max. Stim., BGLAP activation” value in experiment [2] is 75.9%.
